ChEMBL document CHEMBL1201862, “PubChem BioAssay data set” (2004)
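1) Cells in 96-well plates. 2) Compound, 48 h, 5 concentrations. 3) Linear interpolation between surrounding doses. 4) Unreached endpoint = highest concentration. Abbreviation: GI50, concentration required for 50% inhibition of growth.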 Calls of active or inactive are those of the source. Rule as the data show it: active = GI50 up to about 1.1 µM and inactive = higher. Non-standard residues stand in square brackets, D forms with d. Residues, ends and D or L forms follow the SMILES beside them. *: point of attachment. Ac5c = NC1(C(=O)O)CCCC1; Boc = CC(C)(C)OC(=O)*; tBu = CC(C)(C)*

Key:
Assay in all cases: NCI anticancer screen, dose series, 48 h
HCT-15 = test system: HCT-15
SNB-19 = test system: SNB-19
SF-268 = test system: SF-268
OVCAR-8 = test system: OVCAR-8
HOP-62 = test system: HOP-62
M19-MEL = test system: M19-MEL
K562 = test system: K562
TK-10 = test system: TK-10
UACC-257 = test system: UACC-257
NCI-H522 = test system: NCI-H522
786-0 = test system: 786-0
HCC 2998 = test system: HCC 2998
SF-295 = test system: SF-295
RPMI-8226 = test system: RPMI-8226
MDA-N = test system: MDA-N
RXF 393 = test system: RXF 393
DU-145 = test system: DU-145
MCF7 = test system: MCF7
NCI/ADR-RES = test system: NCI/ADR-RES
Hs-578T = test system: Hs-578T

Row | SMILES | GI50 (HCT-15) | GI50 (SNB-19) | GI50 (SF-268) | GI50 (OVCAR-8) | GI50 (HOP-62) | GI50 (M19-MEL) | GI50 (K562) | GI50 (TK-10) | GI50 (UACC-257) | GI50 (NCI-H522) | GI50 (786-0) | GI50 (HCC 2998) | GI50 (SF-295) | GI50 (RPMI-8226) | GI50 (MDA-N) | GI50 (RXF 393) | GI50 (DU-145) | GI50 (MCF7) | GI50 (NCI/ADR-RES) | GI50 (Hs-578T)
1 | COc1cc2c3c(c1OC)C(=O)C=C3N(S(=O)(=O)c1ccc(C)cc1)CC2 | > 100 µM | > 100 µM (inactive) | > 100 µM (inactive) | > 100 µM (inactive) | 64.3 µM (inactive) | > 100 µM (inactive) | > 100 µM (inactive) | > 100 µM (inactive) | > 100 µM (inactive) | 10.4 µM (inactive) | 21.3 µM (inactive) | > 100 µM (inactive) | 77.8 µM (inactive) | > 100 µM (inactive) |  |  |  |  |  | 
2 | C=CC(C)(C)n1cc(C2=C(O)C(=O)C(c3cn(C(C)(C)C=C)c4ccccc34)=C(O)C2=O)c2ccccc21 | 1.75 µM | 2.41 µM (inactive) | 2.19 µM (inactive) | 2.11 µM (inactive) | 2.32 µM (inactive) |  | 5.62 µM (inactive) | 3.18 µM (inactive) | 2.9 µM (inactive) | 2.53 µM (inactive) | 3.05 µM (inactive) | 2.61 µM (inactive) | 2.85 µM (inactive) | 4.44 µM (inactive) | 1.95 µM (inactive) | 0.435 µM (active) | 4.9 µM (inactive) | 3.48 µM (inactive) | 2.2 µM (inactive) | 2.07 µM (inactive)
3 | C#CCSc1nc(N)c2ncn(C3OC(COP(=O)(O)O)C(O)C3O)c2n1 (stereo not given) | > 239 µM | > 239 µM (inactive) | > 239 µM (inactive) | > 239 µM (inactive) | > 239 µM (inactive) | > 239 µM (inactive) | > 239 µM (inactive) | > 239 µM (inactive) | > 239 µM (inactive) | > 239 µM (inactive) | > 239 µM (inactive) | > 239 µM (inactive) | > 239 µM (inactive) | > 239 µM (inactive) |  |  |  |  |  | 
4 | Cc1cccc2c1CC(Cc1ccccc1C(=O)O)C2=O (stereo not given) | > 100 µM | > 100 µM (inactive) | > 100 µM (inactive) | > 100 µM (inactive) | > 100 µM (inactive) |  | > 100 µM (inactive) | > 100 µM (inactive) | > 100 µM (inactive) | > 100 µM (inactive) | > 100 µM (inactive) | > 100 µM (inactive) | > 100 µM (inactive) | > 100 µM (inactive) | > 100 µM (inactive) | > 100 µM (inactive) | > 100 µM (inactive) | > 100 µM (inactive) | > 100 µM (inactive) | > 100 µM (inactive)
5 | CC[C@@]1(O)C(=O)OCc2c1cc1n(c2=O)Cc2c-1nc1ccccc1c2/C=N\NC(=O)CN | 0.221 µM | < 0.0397 µM (active) | 0.0387 µM (active) | 0.273 µM (active) | 0.0533 µM (active) |  | 0.586 µM (active) | 26.1 µM (inactive) | 2.49 µM (inactive) | 1.02 µM (active) | 0.0908 µM (active) | 2.21 µM (inactive) | 0.143 µM (active) | 0.147 µM (active) | 1.57 µM (inactive) | 0.873 µM (active) | 0.0989 µM (active) | 0.0495 µM (active) | 0.726 µM (active) | > 40.5 µM (inactive)
6 | CCOC(=O)NC(=O)c1cn(CCN2CCNCC2)c(=O)[nH]c1=O | > 100 µM | > 100 µM (inactive) | > 100 µM (inactive) | > 100 µM (inactive) | > 100 µM (inactive) | > 100 µM (inactive) | > 100 µM (inactive) | > 100 µM (inactive) |  | > 100 µM (inactive) | > 100 µM (inactive) |  | > 100 µM (inactive) | > 100 µM (inactive) |  | > 100 µM (inactive) |  |  |  | 
7 | CN1CCN(c2ccc3[nH]c(-c4ccc5[nH]c(CCCc6ccc(N(CCCl)CCCl)cc6)nc5c4)nc3c2)CC1 | > 100 µM | > 100 µM (inactive) | > 100 µM (inactive) | > 100 µM (inactive) | > 100 µM (inactive) |  | > 100 µM (inactive) | > 100 µM (inactive) | > 100 µM (inactive) | > 100 µM (inactive) | > 100 µM (inactive) | > 100 µM (inactive) | > 100 µM (inactive) | > 100 µM (inactive) | > 100 µM (inactive) | > 100 µM (inactive) | > 100 µM (inactive) | 64.3 µM (inactive) | > 100 µM (inactive) | 2.09 µM (inactive)
8 | Cc1c(C(=O)c2ccccc2C(=O)O)c2ccccc2n1C | > 100 µM |  |  | > 100 µM (inactive) | > 100 µM (inactive) | > 100 µM (inactive) | > 100 µM (inactive) | > 100 µM (inactive) | > 100 µM (inactive) |  | > 100 µM (inactive) | > 100 µM (inactive) | > 100 µM (inactive) | > 100 µM (inactive) |  | > 100 µM (inactive) |  |  |  | 
9 | CC(C)(C)C#COC(=O)c1ccccc1 | > 100 µM | > 100 µM (inactive) | > 100 µM (inactive) | > 100 µM (inactive) | > 100 µM (inactive) | > 100 µM (inactive) | > 100 µM (inactive) |  | > 100 µM (inactive) | > 100 µM (inactive) | > 100 µM (inactive) | > 100 µM (inactive) | > 100 µM (inactive) | > 100 µM (inactive) |  |  |  |  |  | 
10 | O=c1cc(-c2ccccc2)[nH]c2ccc(N3CCCC3)cc12 | 0.0743 µM | 0.0217 µM (active) | 0.173 µM (active) | 0.0365 µM (active) | 0.0163 µM (active) |  | < 0.01 µM (active) | 5.62 µM (inactive) | 30.4 µM (inactive) | < 0.01 µM (active) | < 0.0114 µM (active) | 0.172 µM (active) | < 0.01 µM (active) | 0.0366 µM (active) | < 0.01 µM (active) | 0.0196 µM (active) | 0.0459 µM (active) | 4.58 µM (inactive) | 0.0159 µM (active) | < 0.0173 µM (active)
11 | C=CCN1C(=O)CS/C1=N\NC(=O)CSc1nc2ccccc2c(=O)n1CC | > 100 µM | > 100 µM (inactive) | > 100 µM (inactive) | > 100 µM (inactive) | 84.1 µM (inactive) |  | > 100 µM (inactive) | > 100 µM (inactive) | > 100 µM (inactive) | > 100 µM (inactive) | > 100 µM (inactive) | > 100 µM (inactive) | > 100 µM (inactive) | > 100 µM (inactive) | > 100 µM (inactive) | > 100 µM (inactive) | > 100 µM (inactive) | > 100 µM (inactive) | > 100 µM (inactive) | > 100 µM (inactive)
12 | CC(C)N(C(=O)C12C3C4C1C1C4(C#N)C3C12C(=O)O)C(C)C (stereo not given) | > 44.7 µM | > 100 µM (inactive) | > 100 µM (inactive) | > 86.9 µM (inactive) | > 100 µM (inactive) | > 100 µM (inactive) | > 69.8 µM (inactive) | > 100 µM (inactive) | > 100 µM (inactive) | > 69.3 µM (inactive) | > 100 µM (inactive) | > 100 µM (inactive) | > 100 µM (inactive) | > 43.1 µM (inactive) |  |  |  |  |  | 
13 | CN(C)CC/C(=N\Nc1c(F)c(F)c(F)c(F)c1F)c1ccccc1 | 35.3 µM | 54.1 µM (inactive) | 90.4 µM (inactive) | 93.3 µM (inactive) | > 10 µM (inactive) | 70.1 µM (inactive) | 20.4 µM (inactive) | 62.7 µM (inactive) | 24.1 µM (inactive) | 14.3 µM (inactive) | 82.4 µM (inactive) |  | 38.5 µM (inactive) | 19 µM (inactive) |  | 22 µM (inactive) |  |  |  | 
14 | CC(OC(C)(C)C)C(NC(=O)C(CCCCNC(=O)OC(C)(C)C)NC(=O)C(Cc1c[nH]c2ccccc12)NC(=O)C(N)Cc1ccccc1)C(=O)NC(Cc1ccccc1)C(=O)NC1(C(=O)O)CCCC1 (stereo not given) (H-FWK(Boc)T(tBu)F[Ac5c]-OH; configuration not given here) | > 100 µM | > 100 µM (inactive) | > 100 µM (inactive) | > 100 µM (inactive) | > 100 µM (inactive) |  | > 100 µM (inactive) | > 100 µM (inactive) | > 100 µM (inactive) | > 100 µM (inactive) | > 100 µM (inactive) | > 100 µM (inactive) | > 100 µM (inactive) | > 100 µM (inactive) | > 100 µM (inactive) | > 100 µM (inactive) | > 100 µM (inactive) | > 100 µM (inactive) | > 100 µM (inactive) | > 100 µM (inactive)
15 | c1ccc(CSSSCc2ccccc2)cc1 [DIBENZYL TRISULFIDE] | 0.581 µM | 15.3 µM (inactive) | 3.57 µM (inactive) | 1.15 µM (inactive) | 0.964 µM (active) |  | 0.127 µM (active) | 1.62 µM (inactive) | 5.57 µM (inactive) | 0.363 µM (active) | 0.463 µM (active) | 5.58 µM (inactive) | 6.58 µM (inactive) | 0.313 µM (active) | 1.25 µM (inactive) | 1.72 µM (inactive) | 1.12 µM (active) | 0.385 µM (active) | 1.86 µM (inactive) | 8.32 µM (inactive)
16 | C=C1C(=O)O[C@H]2[C@H]1[C@H](OC(=O)/C(C)=C\C)C[C@]1(CO1)[C@@H]1[C@H](OC(C)=O)C=C(C)[C@]21O [EUPAROTIN ACETATE] | 13.3 µM | > 58.5 µM (inactive) | 19.2 µM (inactive) | 30.8 µM (inactive) | 74 µM (inactive) |  | 0.383 µM (active) | 7.73 µM (inactive) | 17.7 µM (inactive) | 3.31 µM (inactive) | 7.46 µM (inactive) | 19.3 µM (inactive) | > 83.9 µM (inactive) | 4.82 µM (inactive) | 13.2 µM (inactive) | 10.8 µM (inactive) | 15.4 µM (inactive) | 6.79 µM (inactive) | 21.5 µM (inactive) | > 56.2 µM (inactive)
